Results: US20060110790A1, “Expression system for large functional proteins” (priority 2002, published 2006)

Target: T1, ABCR K939M, K1978M and K939M/K1978M mutants (Homo sapiens, UniProt P78363, K1978M/K969M)
T1 construct: made in house
Assay: ATPase activity of Walker A lysine-to-methionine mutants
Assay type: biochemical
Details: 50 μM all-trans retinal
Description: FIG. 4. Lysine to methionine Walker A mutations in ABCR abolish ATP hydrolysis but not ATP binding. A. ATPase activity was measured in the absence (white bars) or presence of 50 μM all-trans retinal (grey bars). WT, wild-type; K969M in NBD1; K1978M in NBD2; MM, K969M/K1978M double mutant; NCM, N-half co-expressed with C-half containing a K1978M mutation. B. ATP photoaffinity labeling was carried out by irradiating membranes from COS-1 cells expressing wild-type (WT), K969M, K1978M, or K969M/K1978M double mutant (MM) with 3 μM 8-azido-[α-^32P]ATp. The labeled protein was isolated with Rim3F4-Sepharose and separated on SDS gels. Left panel: gel stained with Coomassie blue. Right panel: corresponding ^32P labeling obtained with a phosphorimager. All mutant proteins were labeled with 8-azido-[α-^32P]ATP, but the double mutant bound less nucleotide.
ATPase activity was measured as described previously (Ahn, J., Wong, J. T., and Molday, R. S. (2000) J Biol Chem 275(27), 20399-405) using 50 μM [α^32P]ATP and thin layer chromatography. The all-trans retinal concentration was determined spectrophotometrically (λ383 nm=42.88 mM^−1 cm^−1). Protein concentration was estimated from the eluate before reconstitution by laser densitometry of Coomassie blue stained gels using bovine serum albumin as a standard. […]

T1 sequence (P78363 whole entry K969M/K1978M): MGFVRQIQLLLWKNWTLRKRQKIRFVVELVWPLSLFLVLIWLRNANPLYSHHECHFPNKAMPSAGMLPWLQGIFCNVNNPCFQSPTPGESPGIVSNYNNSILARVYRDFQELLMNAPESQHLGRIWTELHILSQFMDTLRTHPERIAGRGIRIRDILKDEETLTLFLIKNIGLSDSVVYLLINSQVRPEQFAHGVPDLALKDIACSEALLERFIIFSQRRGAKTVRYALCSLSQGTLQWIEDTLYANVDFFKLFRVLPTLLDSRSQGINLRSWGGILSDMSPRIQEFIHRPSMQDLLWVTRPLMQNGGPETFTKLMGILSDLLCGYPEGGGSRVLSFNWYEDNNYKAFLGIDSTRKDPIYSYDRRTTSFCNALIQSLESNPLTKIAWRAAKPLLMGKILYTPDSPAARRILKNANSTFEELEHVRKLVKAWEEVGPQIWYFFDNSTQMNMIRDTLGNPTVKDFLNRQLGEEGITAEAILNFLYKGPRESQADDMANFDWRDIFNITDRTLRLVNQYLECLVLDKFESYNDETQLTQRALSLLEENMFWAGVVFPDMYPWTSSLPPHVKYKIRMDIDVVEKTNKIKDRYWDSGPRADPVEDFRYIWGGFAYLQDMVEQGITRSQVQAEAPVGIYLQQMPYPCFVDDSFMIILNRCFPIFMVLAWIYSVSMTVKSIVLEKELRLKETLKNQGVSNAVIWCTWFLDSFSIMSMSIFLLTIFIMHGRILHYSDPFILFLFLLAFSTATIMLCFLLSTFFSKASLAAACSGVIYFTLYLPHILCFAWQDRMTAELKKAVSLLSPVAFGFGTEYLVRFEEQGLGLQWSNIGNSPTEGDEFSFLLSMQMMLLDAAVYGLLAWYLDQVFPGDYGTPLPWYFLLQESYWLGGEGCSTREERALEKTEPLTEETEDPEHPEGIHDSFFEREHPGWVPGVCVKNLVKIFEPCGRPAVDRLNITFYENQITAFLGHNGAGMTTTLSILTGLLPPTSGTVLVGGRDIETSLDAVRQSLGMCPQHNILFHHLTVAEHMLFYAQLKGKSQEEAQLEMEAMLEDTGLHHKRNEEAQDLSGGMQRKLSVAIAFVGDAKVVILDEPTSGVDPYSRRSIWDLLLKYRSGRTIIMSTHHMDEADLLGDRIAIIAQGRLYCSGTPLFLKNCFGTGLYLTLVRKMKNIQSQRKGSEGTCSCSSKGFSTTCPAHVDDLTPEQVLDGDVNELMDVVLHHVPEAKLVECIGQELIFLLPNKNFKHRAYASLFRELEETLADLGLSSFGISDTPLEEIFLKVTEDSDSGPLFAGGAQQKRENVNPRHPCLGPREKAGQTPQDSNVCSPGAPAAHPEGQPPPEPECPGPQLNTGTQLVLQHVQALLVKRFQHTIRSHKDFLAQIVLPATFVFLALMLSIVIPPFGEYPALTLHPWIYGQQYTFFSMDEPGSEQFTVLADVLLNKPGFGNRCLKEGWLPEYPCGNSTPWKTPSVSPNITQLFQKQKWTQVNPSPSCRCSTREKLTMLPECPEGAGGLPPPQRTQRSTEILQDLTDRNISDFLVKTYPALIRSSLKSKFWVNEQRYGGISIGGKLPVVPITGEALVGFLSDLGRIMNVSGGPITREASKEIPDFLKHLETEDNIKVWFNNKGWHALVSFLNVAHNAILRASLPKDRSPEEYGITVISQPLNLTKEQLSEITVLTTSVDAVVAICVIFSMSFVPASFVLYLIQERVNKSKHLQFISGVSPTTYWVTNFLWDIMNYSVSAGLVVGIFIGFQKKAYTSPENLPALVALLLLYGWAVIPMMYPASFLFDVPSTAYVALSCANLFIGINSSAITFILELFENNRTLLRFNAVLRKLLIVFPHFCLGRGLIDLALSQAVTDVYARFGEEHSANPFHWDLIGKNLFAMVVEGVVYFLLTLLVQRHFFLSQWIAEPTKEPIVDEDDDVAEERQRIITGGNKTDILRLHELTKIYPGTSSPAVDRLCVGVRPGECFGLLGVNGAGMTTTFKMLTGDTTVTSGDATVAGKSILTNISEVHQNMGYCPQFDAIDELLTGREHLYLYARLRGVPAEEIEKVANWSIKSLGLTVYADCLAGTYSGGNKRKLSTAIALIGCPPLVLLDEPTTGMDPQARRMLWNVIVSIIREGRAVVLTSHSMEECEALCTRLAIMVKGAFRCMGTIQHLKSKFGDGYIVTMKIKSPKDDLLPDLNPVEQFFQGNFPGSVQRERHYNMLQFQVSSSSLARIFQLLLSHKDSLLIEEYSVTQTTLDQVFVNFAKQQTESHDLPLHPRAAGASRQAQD

CC1=C(/C=C/C(C)=C/C=C/C(C)=C/C=O)C(C)(C)CCC1 [all-trans retinal]
retinal activation of ATPase activity: abolished retinal activation
